Values quoted from earlier work in patent US10583154B2, “Multi-dose compositions containing an antimicrobial polyamide or octenidine preservative” (priority 2016, dated 2020).

Tests used:
Conditions in all cases: cited from earlier work
E. coli = test system: E. coli
Pseudomonas aeruginosa = test system: Pseudomonas aeruginosa
Staphylococcus aureus = test system: Staphylococcus aureus
Candida albicans = test system: Candida albicans
Aspergillus niger = test system: Aspergillus niger

Compound: C[CH2][Hg][S]c1ccccc1C(=O)[O-].[Na+] [thimerosal]
- Minimum Inhibitory Concentration (MIC) (E. coli): 4 to 8 µg/mL
- Minimum Inhibitory Concentration (MIC) (Pseudomonas aeruginosa): 4 to 8 µg/mL
- Minimum Inhibitory Concentration (MIC) (Staphylococcus aureus): 0.2 µg/mL
- Minimum Inhibitory Concentration (MIC) (Candida albicans): 32 µg/mL
- Minimum Inhibitory Concentration (MIC) (Aspergillus niger): 128 µg/mL
